From PMC3075238 (Bioorganic & medicinal chemistry letters, 2011)

Molecular target: T1, caspase-3 in HeLa cell (Homo sapiens, UniProt P42574)
T1 sequence (P42574 29-175 limits assumed): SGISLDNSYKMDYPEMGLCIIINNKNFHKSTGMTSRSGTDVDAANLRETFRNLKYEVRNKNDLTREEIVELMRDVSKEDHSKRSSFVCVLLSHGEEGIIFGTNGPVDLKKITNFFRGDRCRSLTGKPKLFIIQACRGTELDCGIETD
T1 sequence (P42574 176-277 limits assumed): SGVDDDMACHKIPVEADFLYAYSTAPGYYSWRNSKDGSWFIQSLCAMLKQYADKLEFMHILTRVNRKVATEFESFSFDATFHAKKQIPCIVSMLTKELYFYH
Test: Apo-One Homogeneous Caspase-3/7 whole cell assay in HeLa cells

O=C1C(=O)N(Cc2cn(CCF)nn2)c2ccc(S(=O)(=O)N3CCC[C@H]3COc3ccc(F)cc3F)cc21 [Compound 51] was tested, and the “inhibition potency for caspase-3 in the whole cell assay (in words)” value was “very good inhibition potency”.
